Results taken from PubChem BioAssay AID330 (DTP/NCI, 2004).
Toxic doses and inconclusive results are not listed. How the source made its calls: active means survival T/C of 150% or more; inactive means T/C below 125% in these data.

Test system: P388 leukemia ip, CD2F1 mice, survival T/C
Experiment: NCI In Vivo Anticancer Drug Screen. Data for tumor model P388 Leukemia (intraperitoneal) in CD2F1 (CDF1) mice
Conditions: endpoint: median survival time, higher = longer survival
Outline: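 Mice carrying the transplanted tumor received test compound or vehicle. Survival was recorded in each group, and the value is the treated-group measurement divided by that of the vehicle-treated control group.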

[1] = dose: 25.0 mg/kg/injection, schedule: Q01DX005 (ip), vehicle: saline with Tween-80
[2] = dose: 50.0 mg/kg/injection, schedule: Q01DX005 (ip), vehicle: saline with Tween-80
[3] = dose: 100.0 mg/kg/injection, schedule: Q01DX005 (ip), vehicle: saline with Tween-80
[4] = dose: 200.0 mg/kg/injection, schedule: Q01DX005 (ip), vehicle: saline with Tween-80
[5] = dose: 7.5 mg/kg/injection, schedule: Q01DX005 (ip), vehicle: saline with Tween-80
[6] = dose: 15.0 mg/kg/injection, schedule: Q01DX005 (ip), vehicle: saline with Tween-80
[7] = dose: 30.0 mg/kg/injection, schedule: Q01DX005 (ip), vehicle: saline with Tween-80
[8] = dose: 50.0 mg/kg/injection, schedule: Q01DX009 (ip), vehicle: saline with Tween-80
[9] = dose: 60.0 mg/kg/injection, schedule: Q01DX005 (ip), vehicle: saline with Tween-80
[10] = dose: 60.0 mg/kg/injection, schedule: Q01DX005 (ip), vehicle: Klucel (hydroxypropylcellulose) (HPC)
[11] = dose: 120.0 mg/kg/injection, schedule: Q01DX005 (ip), vehicle: Klucel (hydroxypropylcellulose) (HPC)
[12] = dose: 240.0 mg/kg/injection, schedule: Q01DX005 (ip), vehicle: Klucel (hydroxypropylcellulose) (HPC)
[13] = dose: 120.0 mg/kg/injection, schedule: Q01DX005 (ip), vehicle: saline with Tween-80
[14] = dose: 240.0 mg/kg/injection, schedule: Q01DX005 (ip), vehicle: saline with Tween-80
[15] = dose: 50.0 mg/kg/injection, schedule: Q01DX009 (ip), vehicle: saline
[16] = dose: 100.0 mg/kg/injection, schedule: Q01DX009 (ip), vehicle: saline
[17] = dose: 200.0 mg/kg/injection, schedule: Q01DX009 (ip), vehicle: saline
[18] = dose: 100.0 mg/kg/injection, schedule: Q01DX009 (ip), vehicle: saline with Tween-80
[19] = dose: 200.0 mg/kg/injection, schedule: Q01DX009 (ip), vehicle: saline with Tween-80

Measured: T/C

O=C(CCl)N1c2ccc3ccccc3c2Sc2ccc3ccccc3c21
inactive: dose: 6.25 mg/kg/injection, schedule: Q01DX005 (ip), vehicle: saline with Tween-80 96 % of control | dose: 12.5 mg/kg/injection, schedule: Q01DX005 (ip), vehicle: saline with Tween-80 101 % of control | [1] 95 % of control | [2] 98 % of control | [3] 97 % of control | [4] 105 % of control

FC(F)(F)COP(=S)(OCC(F)(F)F)OCC(F)(F)F
inactive: [2] 107 % of control | [3] 108 % of control | [4] 110 % of control

COc1cc2c(cc1OC)C13CCN4CC5=CCOC6CC(=O)N2C1C6C5CC43 (configuration not stated)
inactive: [5] 102 % of control | dose: 12.5 mg/kg/injection, schedule: Q01DX009 (ip), vehicle: saline with Tween-80 100 % of control | [6] 97 % of control | dose: 25.0 mg/kg/injection, schedule: Q01DX009 (ip), vehicle: saline with Tween-80 100 % of control | dose: 25.0 mg/kg/injection, schedule: Q04DX003 (ip), vehicle: saline sonified 100 % of control | [7] 100 % of control | [8] 100 % of control | dose: 50.0 mg/kg/injection, schedule: Q04DX003 (ip), vehicle: saline sonified 95 % of control | [9] 93 % of control

S=C(Nc1ccc(I)cc1)SCc1ccco1
inactive: dose: 50.0 mg/kg/injection, schedule: Q01DX009 (ip), vehicle: suspension in saline 90 % of control | dose: 100.0 mg/kg/injection, schedule: Q01DX009 (ip), vehicle: suspension in saline 112 % of control | dose: 200.0 mg/kg/injection, schedule: Q01DX009 (ip), vehicle: suspension in saline 109 % of control

CNC(=O)Nc1ccn(C(=O)NC)c(=O)n1
inactive: dose: 100.0 mg/kg/injection, schedule: Q04DX002 (ip), vehicle: Klucel (hydroxypropylcellulose) (HPC) 114 % of control | dose: 200.0 mg/kg/injection, schedule: Q04DX002 (ip), vehicle: Klucel (hydroxypropylcellulose) (HPC) 120 % of control

COc1ccc(CCNC2=CC(=O)CC2)cc1OC
inactive: [1] 92 % of control | [2] 89 % of control | [3] 92 % of control

CN1C(=O)C(Br)(Br)CC1c1cccnc1 (configuration not stated)
inactive: [10] 101 % of control | [11] 109 % of control | [12] 100 % of control

CC1(C)N=C(N)N=C(N)N1c1cccc(OCCOc2ccccc2[N+](=O)[O-])c1
inactive: [9] 104 % of control | [13] 95 % of control | [14] 98 % of control

OCC1OC(O)C(Cl)(Cl)C(O)C1O (configuration not stated)
inactive: [15] 107 % of control | [16] 117 % of control | [17] 112 % of control

COc1ccccc1/C=C/C(=O)c1ccccc1
inactive: [8] 96 % of control | [18] 94 % of control | [19] 96 % of control

C[CH2][Sn]([CH2]C)([N]=C=S)[N]=C=S.c1ccc2nc(-c3ccc4ccccc4n3)ccc2c1
inactive: [10] 95 % of control | [11] 96 % of control | [12] 98 % of control

CCCCOC(=O)N(C)SN(C)C(=O)Oc1cccc(C(C)C)c1
inactive: [8] 121 % of control

O=c1n(-c2ccccc2)c2nc3ccccc3nc2n1-c1ccc(Cl)c(Cl)c1
inactive: [2] 90 % of control | [3] 100 % of control | [4] 109 % of control

O=C(O)C(O)C(O)C(OC1OC(CO)C(O)C(O)C1O)C(O)CO (configuration not stated)
inactive: dose: 50.0 mg/kg/injection, schedule: Q01DX005 (ip), vehicle: saline 105 % of control | dose: 100.0 mg/kg/injection, schedule: Q01DX005 (ip), vehicle: saline 101 % of control | dose: 200.0 mg/kg/injection, schedule: Q01DX005 (ip), vehicle: saline 102 % of control

COc1ccc(C2N(c3ccccc3)CCN2c2ccccc2)cc1
inactive: [2] 99 % of control | [3] 93 % of control | [4] 93 % of control

C/C(=N\N1CN(C(C)C(=O)O)P(Nc2ncn[nH]2)N=C1N)c1cccs1 (configuration not stated)
inactive: [5] 96 % of control | [6] 103 % of control | [7] 106 % of control

CCNC1(c2ccccc2)CCCCC1
inactive: dose: 6.25 mg/kg/injection, schedule: Q04DX003 (ip), vehicle: saline 121 % of control | dose: 12.5 mg/kg/injection, schedule: Q04DX003 (ip), vehicle: saline 106 % of control | dose: 25.0 mg/kg/injection, schedule: Q04DX003 (ip), vehicle: saline 104 % of control

CC(=O)OCCN1c2ccccc2Sc2cnccc21
inactive: [18] 100 % of control | [19] 100 % of control | dose: 400.0 mg/kg/injection, schedule: Q01DX009 (ip), vehicle: saline with Tween-80 95 % of control

O=C1NC(=O)C(CCC[n+]2ccccc2)(c2ccccc2)C(=O)N1
inactive: [8] 107 % of control | [18] 107 % of control

Cc1cc(C(F)(F)F)nc(NNc2nc(C)cc(C(F)(F)F)n2)n1
inactive: [8] 102 % of control | [18] 88 % of control | [19] 88 % of control

Clc1ccccc1-c1nnc(-c2cccc(-c3nnc(-c4ccccc4Cl)o3)n2)o1
inactive: [5] 89 % of control | [6] 91 % of control | [7] 89 % of control | [9] 101 % of control | [13] 97 % of control | [14] 104 % of control

CC(C)(C)SC(=O)C1(C(OC(=O)c2ccccc2)c2ccccc2)CC1 (configuration not stated)
inactive: dose: 100.0 mg/kg/injection, schedule: Q04DX003 (ip), vehicle: Klucel (hydroxypropylcellulose) (HPC) 96 % of control | dose: 200.0 mg/kg/injection, schedule: Q04DX003 (ip), vehicle: Klucel (hydroxypropylcellulose) (HPC) 100 % of control | dose: 400.0 mg/kg/injection, schedule: Q04DX003 (ip), vehicle: Klucel (hydroxypropylcellulose) (HPC) 89 % of control

O=[N+]([O-])c1ccc2c(c1)C(N1CCOCC1)c1ccccc1-2 (configuration not stated)
inactive: dose: 50.0 mg/kg/injection, schedule: Q01DX005 (ip), vehicle: Klucel (hydroxypropylcellulose) (HPC) 98 % of control | dose: 100.0 mg/kg/injection, schedule: Q01DX005 (ip), vehicle: Klucel (hydroxypropylcellulose) (HPC) 98 % of control | dose: 200.0 mg/kg/injection, schedule: Q01DX005 (ip), vehicle: Klucel (hydroxypropylcellulose) (HPC) 100 % of control

Cc1ccc(NC(=O)Oc2ccc(Cl)c(C)c2)c([N+](=O)[O-])c1
inactive: [18] 87 % of control | [19] 88 % of control

CCCCCCCCCCCCCCCCC[CH2][Sn](=[O])[OH]
inactive: [15] 111 % of control | [16] 113 % of control | [17] 114 % of control
